The test system of one assay is lymphocytes. The note with it: as disclosed in WO 00/45800; cited from earlier work.
The subject of a further assay is CD3. The note with it: as disclosed in WO 00/45800; cited from earlier work.
Another assay deals with CD 28. The note with it: as disclosed in WO 00/45800; cited from earlier work.
Assay [1] deals with TNF-alpha production by PBMC. Briefly: TNF-alpha assay, LPS-stimulated PBMC, sandwich ELISA. It counts as cell-based, human. The following applies: Table 7; same conditions as example 26; read-out: TNFα IC50. On the procedure: (§1) All reagents were dissolved in 0.5 ml dimethylsulfoxide (hereinafter referred as DMSO) and further diluted in culture medium before use for the following in vitro experiments. The commercially available culture medium consisted of RPMI-1640+10% foetal calf serum (FCS). Peripheral blood mononuclear cells (herein referred as PBMC), in response to stimulation by lipopolysaccharide (LPS), a gram-negative bacterial endotoxin, produce various […], in particular human TNF-alpha and II-1 beta. The inhibition of the activation of PBMC can be measured by the level of suppression of the production of TNF-alpha or IL-1 beta by PBMC in response to stimulation by LPS. Such inhibition measurement was performed as follows: PBMC were isolated from heparinized peripheral blood (Buffy coat) by density gradient centrifugation. LPS is then added to the PMBC suspension in complete medium (10^6 cells/ml) at a final concentration of 1 μg/ml. The compound to be tested was added at different dilution levels, and the cells were incubated at 37° C. for 72 hours. The supernatants were collected, and TNF-alpha or II-1 beta concentrations were measured with respectively an anti-TNF antibody or an anti-IL-1 beta antibody in a sandwich ELISA. The percent inhibition was calculated as: % inhibition=(pg/ml in sample−pg/ml min.)/(pg/ml max.−pg/ml min.)−1 wherein: min.: pg/ml in culture medium without test compound, and • max.: pg/ml in culture medium+LPS without test compound.
In general terms: An ELISA detects its analyte on a solid surface through an enzyme-linked reagent.

The test system of assay [2] is peripheral blood mononuclear cells (PBMC). Briefly: Mixed lymphocyte reaction (MLR) test. It counts as cell-based, human. The note with it: Table 7; same conditions as example 26. The procedure:
All reagents were dissolved in 0.5 ml dimethylsulfoxide (hereinafter referred as DMSO) and further diluted in culture medium before use for the following in vitro experiments. The commercially available culture medium consisted of RPMI-1640+10% foetal calf serum (FCS). Peripheral blood mononuclear cells (hereinafter referred as PBMC) were isolated from heparinized peripheral blood by density gradient centrifugation over Lymphoprep (Nycomed, Maorstua, Norway). Allogeneic PBMC or […]-Barr Virus-transformed human B cells [commercially available under the trade name RPMI1788 (ATCC name CCL156)] which strongly express B7-1 and B7-2 antigens were used as stimulator cells after irradiation with 30 Gy. MLR was performed in triplicate wells. After 5 days incubation at 37° C., 1 μCi [^3H]-thymidine was added to each cup. After a further 16 hours incubation, cells were harvested and counted in a β-counter. Inhibition of proliferation by a compound (drug) described in some of the previous examples was counted using the formula: [formula] wherein cpm is the thymidine count per minute. TNF-Alpha and IL-1 Beta Assays

In assay [3] the test system is IL-1 beta production by PBMC. Briefly: IL-1 beta assay, LPS-stimulated PBMC, sandwich ELISA. It is filed as cell-based, human. The following applies: Table 7; same conditions as example 26; read-out: IL1β IC50. On the procedure:
as §1

These results are taken from US20070043000A1, “Immunosuppresive effects of pteridine derivatives” (priority 2003, published 2007).

Each structure is given as a SMILES string.

Consider `COc1ccc(-c2nc3c(nc2C(=O)c2ccccc2)c(=O)n(C)c(=O)n3C)cc1` [1,3-dimethyl-6-benzoyl-7-(4-methoxyphenyl)lumazine], for which the “result in Mixed Lymphocyte Reaction test” value with lymphocytes was “poor results”. For the same compound, in the assay with CD3, the “result in CD3 assay” value is listed as “poor results”. Moreover, the “result in CD 28 assay” value in the assay with CD 28 is “poor results”.
What is called IC50 is the concentration needed to halve the response being measured. Turning to `Cn1c(=O)n(CCCC#N)c(=O)c2nc(-c3ccccc3)c(Cl)nc21` [Example 67, 3-butyronitrile-7-chloro-1-methyl-6-phenyl-lumazine], the values for the 50% inhibitory concentration (IC50) in assay [1], in assay [2] and in assay [3] were 0.7 µM, 4.8 µM and 0.6 µM, respectively.
On to `CCOC(=O)CCCn1c(=O)c2nc(-c3ccccc3)c(Cl)nc2n(CC)c1=O` [Example 68, 7-chloro-1-ethyl-3-(ethyl butyrate)-6-phenyl-lumazine], for which the half-inhibitory concentration (IC50) in assay [1] was found to be 3.1 µM; in assay [2] it was 6.8 µM; in assay [3], 0.6 µM.
On the same counts, the results for `CC(=O)Nn1c(=O)c2nc(-c3ccccc3)c(Cl)nc2n(C)c1=O` [Example 69, 3-acetamido-7-chloro-1-methyl-6-phenyl-lumazine] are 5.8 µM, 4.5 µM and 3.4 µM.
Consider `CCOC(=O)CCCn1c(=O)c2nc(-c3ccccc3)c(Br)nc2n(C)c1=O` [Example 70, 7-bromo-3-(ethyl butyrate)-1-methyl-6-phenyl-lumazine], for which the half-inhibitory concentration (IC50) in assay [1] was 5.5 µM; in assay [2], 5 µM; in assay [3], 3.5 µM.
Consider `CCOC(=O)Cn1c(=O)c2nc(-c3ccccc3)c(Cl)nc2n(C)c1=O` [Example 71, 7-chloro-3-(ethyl acetate)-1-methyl-6-phenyl-lumazine], for which the values for the IC50 in assay [1], in assay [2] and in assay [3] were 3.4 µM, 2.8 µM and 0.6 µM, respectively.
With `CCOC(=O)CCCCn1c(=O)c2nc(-c3ccccc3)c(Cl)nc2n(C)c1=O` [Example 72, 7-chloro-3-(ethyl pentanoate)-1-methyl-6-phenyl-lumazine], the figures for the concentration for half-maximal inhibition (IC50) in assay [1], in assay [2] and in assay [3] were 3.4 µM, 3.5 µM and 0.6 µM, respectively.
On the same counts, the results for `CCOC(=O)CCCn1c(=O)c2nc(-c3ccc(OC)cc3)c(Cl)nc2n(C)c1=O` [Example 73, 7-chloro-3-(ethyl butyrate)-1-methyl-6-(4-methoxyphenyl)-lumazine] are 0.6 µM, 4.9 µM and 0.5 µM.
For `Cn1c(=O)n(CCN2CCOCC2)c(=O)c2nc(-c3ccccc3)c(Cl)nc21` [Example 74, 7-chloro-1-methyl-3-(2-morpholinoethyl)-6-phenyl-lumazine], in that order: 2.6 µM, 4.2 µM and 0.7 µM.
On the same counts, the results for `CCCCOC(=O)NCCn1c(=O)c2nc(-c3ccccc3)c(Cl)nc2n(C)c1=O` [Example 75, 3-(2-butyloxycarbonyl-aminoethyl)-7-chloro-1-methyl-6-phenyl-lumazine] are 3.5 µM, 5.1 µM and 0.7 µM.
On to `COc1ccc(-c2nc3c(=O)n(C)c(=O)n(C)c3nc2Cl)cc1` [Example 76, 7-chloro-1,3-dimethyl-6-(4-methoxyphenyl)-lumazine], for which the IC50 in assay [1] worked out at 0.6 µM; in assay [2], 4.5 µM; in assay [3] it was 0.6 µM.
Take `Cn1c(=O)n(CCN2CCCCC2)c(=O)c2nc(-c3ccccc3)c(Cl)nc21` [Example 77, 7-chloro-1-methyl-6-phenyl-3-(2-piperidinoethyl)-lumazine]: the IC50 in assay [1] was 3.7 µM; in assay [2] it was 3.4 µM; in assay [3], 0.7 µM.
With `Cn1c(=O)n(CCN2CCCC2)c(=O)c2nc(-c3ccccc3)c(Cl)nc21` [Example 78, 7-chloro-1-methyl-6-phenyl-3-(2-pyrrolidinoethyl)-lumazine], the IC50 in assay [1] is 7.4 µM; in assay [2], 4.4 µM; in assay [3] it was 0.8 µM.
On the same counts, the results for `CCOC(=O)CCCn1c(=O)c2nc(-c3ccc(OC)c(OC)c3)c(Br)nc2n(C)c1=O` [Example 79, 7-bromo-6-(3,4-dimethoxyphenyl)-3-(ethylbutyrate)-1-methyl-lumazine] are 0.7 µM, 4.7 µM and 0.2 µM.
For `CCOC(=O)CCCn1c(=O)c2nc(-c3ccc(OC)cc3)c(Br)nc2n(C)c1=O` [Example 80, 7-bromo-3-(ethylbutyrate)-1-methyl-6-(4-methoxyphenyl)-lumazine], in that order: 2.1 µM, 5.6 µM and 6.4 µM.
For `Cn1c(=O)n(CCN2CCOCC2)c(=O)c2nc(-c3ccccc3)c(Br)nc21` [Example 81, 7-bromo-1-methyl-3-(2-morpholinoethyl)-6-phenyl-lumazine], in that order: 1.7 µM, 4.7 µM and 5.4 µM.
On to `COc1ccc(-c2nc3c(=O)n(CCN4CCOCC4)c(=O)n(C)c3nc2Br)cc1OC` [Example 82, 7-bromo-1-methyl-3-(2-morpholinoethyl)-6-(3,4dimethoxyphenyl)-lumazine], for which the figures for the half-maximal inhibitory concentration (IC50) in assay [1], in assay [2] and in assay [3] were 10 µM, 4.6 µM and 5.7 µM, respectively.
On the same counts, the results for `CCOC(=O)CCCn1c(=O)c2nc(-c3ccc(OC)cc3)c(F)nc2n(C)c1=O` [Example 83, 3-(ethyl butyrate)-7-fluoro-1-methyl-6-(4-methoxyphenyl)-lumazine] are 4.9 µM, 4.5 µM and 6.4 µM.
For `Cn1c(=O)c2nc(-c3ccc(O)cc3)c(Br)nc2n(C)c1=O` [Example 84, 7-bromo-1,3-dimethyl-6-(4-hydroxyphenyl)-lumazine], in that order: 0.9 µM, 4.1 µM and 3.9 µM.
With `Cn1c(=O)n(CCCC(=O)O)c(=O)c2nc(-c3ccccc3)c(Cl)nc21` [Example 85, 7-chloro-3-(n-butyric acid)-1-methyl-6-phenyl-lumazine], the values for the IC50 in assay [1], in assay [2] and in assay [3] were 6.1 µM, 5 µM and 3.9 µM, respectively.
For `CCn1c(=O)n(CCCC(=O)O)c(=O)c2nc(-c3ccccc3)c(Cl)nc21` [Example 86, 7-chloro-3-(n-butyric acid)-1-ethyl-6-phenyl-lumazine], in that order: 8.4 µM, 4.6 µM and 2.5 µM.
On the same counts, the results for `CC(C)OC(=O)CCCn1c(=O)c2nc(-c3ccccc3)c(Cl)nc2n(C)c1=O` [Example 87, 7-chloro-3-(isopropyl 4-butyrate)-1-methyl-6-phenyl-lumazine] are 6.1 µM, 5.4 µM and 2.8 µM.
With `COc1ccc(-c2nc3c(=O)n(CCCC(=O)OC(C)C)c(=O)n(C)c3nc2Br)cc1OC` [Example 88, 7-bromo-6-(3,4-dimethoxyphenyl)-3-(isopropyl butyrate)-1-methyl-lumazine], the IC50 in assay [1] amounted to 0.7 µM; in assay [2], 4.7 µM; in assay [3], 7.5 µM.
On the same counts, the results for `Cn1c(=O)n(CCCC(=O)OC(C)(C)C)c(=O)c2nc(-c3ccccc3)c(Cl)nc21` [Example 89, 7-chloro-3-(t-butyl butyrate)-1-methyl-6-phenyl-lumazine] are 5.6 µM, 4.2 µM and 2.1 µM.
On the same counts, the results for `Cn1c(=O)n(CCCC(N)=O)c(=O)c2nc(-c3ccccc3)c(Cl)nc21` [Example 90, 3-(4-butyramido)-7-chloro-1-methyl6-phenyl-lumazine] are 4.9 µM, 3.9 µM and 1.6 µM.
On the same counts, the results for `CCCNC(=O)CCCn1c(=O)c2nc(-c3ccccc3)c(Cl)nc2n(C)c1=O` [Example 92, 7-chloro-1-methyl-6-phenyl-3-(N-propyl 4-butyramido)-lumazine] are 5.4 µM, 3.4 µM and 1.1 µM.
